Data from patent US9890175B2, “Taxane compound, and preparation method and use thereof” (JIANGSU TASLY DIYI PHARMACEUTICAL CO., LTD., priority 2013, dated 2018).
Where two headings read alike, the source gives them in different places.

How the values were obtained:
K562 leukemia = assay: MTT proliferation inhibition, K562; assay type: cell-based; details: Homo sapiens, K562, read-out: Proliferation inhibition rate, K562 Leukemia
Source text: (§1) 1. Cytotoxicity Assay Using Human Tumor Cell Lines
(§2) Paclitaxel was used as the positive drug.

B16 melanoma = assay: MTT proliferation inhibition, B16; assay type: cell-based; details: B16, read-out: Proliferation inhibition rate, B16 Melanoma
Source text: as §1, §2

HCT 116 colon cancer = assay: MTT proliferation inhibition, HCT 116; assay type: cell-based; details: Homo sapiens, HCT-116, read-out: Proliferation inhibition rate, HCT 116 Colon cancer
Source text: as §1, §2

[1] = Caco-2 bidirectional transport, efflux ratio; details: human, Caco-2
Source text: (§3) Human-derived colorectal adenocarcinoma cell line Caco-2 cell monolayer model was used to study the bidirectional transport of the target compounds from the apical (AP) side to the basolateral (BL) side and from BL side to AP side. HPLC was used for quantitative analysis to calculate transport parameters, apparent permeability coefficient (Papp) and the efflux ratio.

BGC-823 gastric cancer = assay: MTT proliferation inhibition, BGC-823; assay type: cell-based; details: Homo sapiens, BGC-823, read-out: Proliferation inhibition rate, BGC-823 Gastric cancer
Source text: as §1, §2

[2] = tested on: breast cancer cell line MCF-7; assay: IC50 on breast cancer cell line MCF-7; assay type: cell-based; details: Homo sapiens
Experimental: From the activity evaluation data of the above-mentioned preliminary screen, it can be seen that the series of taxanes derivatives synthesized in the present invention have activity. Afterward, the compounds are investigated to examine their IC50 values on breast cancer cell line MCF-7. […] Experiments for each compound were independently repeated for three times and multiple holes were used in each experiment. The exposure time of drugs was 72 hours.

Du145 prostate cancer = assay: MTT proliferation inhibition, Du145; assay type: cell-based; details: Homo sapiens, DU-145, read-out: Proliferation inhibition rate, DU145 Prostate cancer
Source text: as §1, §2

A375 melanoma = assay: MTT proliferation inhibition, A375; assay type: cell-based; details: Homo sapiens, A-375, read-out: Proliferation inhibition rate, A375 Melanoma
Source text: as §1, §2

[3] = tested on: NCI-H460 non-small cell lung cancer; assay: MTT proliferation inhibition, NCI-H460; assay type: cell-based; details: Homo sapiens, NCI-H460, read-out: Proliferation inhibition rate, NCI-H460 Non-small cell lung cancer
Source text: as §1, §2

A2780 ovarian cancer = assay: MTT proliferation inhibition, A2780; assay type: cell-based; details: Homo sapiens, A2780, read-out: Proliferation inhibition rate, A2780 Ovarian cancer
Source text: as §1, §2

HL-60 leukemia = assay: MTT proliferation inhibition, HL-60; assay type: cell-based; details: Homo sapiens, HL-60, read-out: Proliferation inhibition rate, HL60 Leukemia
Source text: as §1, §2

[4] = tested on: MCF-7 breast cancer cells; assay: MTT proliferation inhibition, MCF-7; assay type: cell-based; details: Homo sapiens, MCF7, read-out: Proliferation inhibition rate, MCF-7 Breast cancer
Source text: as §1, §2

[5] = tested on: MDA-MB-436 breast cancer cells; assay: MTT proliferation inhibition, MDA-MB-436; assay type: cell-based; details: Homo sapiens, MDA-MB-436, read-out: Proliferation inhibition rate, MDA-MB-436 Breast cancer
Source text: as §1, §2

HT-29 colon cancer = assay: MTT proliferation inhibition, HT-29; assay type: cell-based; details: Homo sapiens, HT-29, read-out: Proliferation inhibition rate, HT29 Colon cancer
Source text: as §1, §2

[6] = tested on: A549 non-small cell lung cancer; assay: MTT proliferation inhibition, A549; assay type: cell-based; details: Homo sapiens, A549, read-out: Proliferation inhibition rate, A549 Non-small cell lung cancer
Source text: as §1, §2

LN-18 = assay: MTT proliferation inhibition, LN-18; assay type: cell-based; details: Homo sapiens, LN-18, read-out: Proliferation inhibition rate, LN-18 Gastric canser
Source text: as §1, §2

[7] = Caco-2 cell monolayer membrane transport assay (Papp and recovery); assay type: in vitro ADME; details: human
Source text: Caco-2 Cell Monolayer Membrane Transport Assay
as §3

LNCaP prostate cancer = assay: MTT proliferation inhibition, LNCaP; assay type: cell-based; details: Homo sapiens, read-out: Proliferation inhibition rate, LNCaP Prostate cancer
Source text: as §1, §2

Hela cervical cancer = assay: MTT proliferation inhibition, HeLa; assay type: cell-based; details: Homo sapiens, read-out: Proliferation inhibition rate, HeLa Uterin cancer
Source text: as §1, §2

Caco-2 cell monolayer [8] = assay: Caco-2 bidirectional transport, efflux ratio; details: Caco-2 cell line (21 days)
Source text: as §3

[9] = reported value; cited from earlier work
Caco-2 cell monolayer [10] = details: human
Source text: as §3

[11] = MCF7, 72 h, read-out: MCF-7 (IC50, nM)
[12] = Caco-2, Caco-2, A-B, Mean, read-out: Recovery rate in mass, Mean
[13] = Caco-2, Caco-2, A-B, Sample-01, read-out: Papp A-B, Sample-01
[14] = Caco-2, Caco-2, A-B, Sample-01, read-out: Recovery rate in mass, Sample-01
[15] = Caco-2, Caco-2, A-B, Sample-02, read-out: Papp A-B, Sample-02
[16] = Caco-2, Caco-2, A-B, Sample-02, read-out: Recovery rate in mass, Sample-02
[17] = Caco-2, Caco-2, A-B, Mean, read-out: Papp A-B, Mean

Row | Compound | inhibition at 1 µM (K562 leukemia) [%] | inhibition at 1 µM (B16 melanoma) [%] | inhibition at 1 µM (HCT 116 colon cancer) [%] | Papp A→B [1] [×10⁻⁶ cm/s] | inhibition at 1 µM (BGC-823 gastric cancer) [%] | IC50 [2, 11] [nM] | inhibition at 1 µM (Du145 prostate cancer) [%] | inhibition at 1 µM (A375 melanoma) [%] | inhibition at 1 µM [3] [%] | inhibition at 1 µM (A2780 ovarian cancer) [%] | inhibition at 1 µM (HL-60 leukemia) [%] | inhibition at 1 µM [4] [%] | inhibition at 1 µM [5] [%] | inhibition at 1 µM (HT-29 colon cancer) [%] | inhibition at 1 µM [6] [%] | inhibition at 1 µM (LN-18) [%] | recovery [7, 12] [%] | Papp A→B [7, 13] [×10⁻⁶ cm/s] | recovery [7, 14] [%] | Papp A→B [7, 15] [×10⁻⁶ cm/s] | further results
1 | COC(=O)O[C@H]1C[C@H]2OC[C@@]2(OC(C)=O)[C@H]2[C@H](OC(=O)c3ccccc3)[C@]34OC(=O)O[C@H]3[C@H](OC(=O)[C@H](O)[C@@H](NC(=O)OC(C)(C)C)c3ccccc3)C(C)=C([C@@H](OC)C(=O)[C@]12C)C4(C)C [PCMI-17] | 96.5 | 82.3 | 69.6 | 2.4 | 95.1 | 3.84 ± 0.08 | 90.7 | 94.9 | 89.2 | 96.6 | 97.3 | 93.1 | 85.1 | 88.5 | 80.3 | 95.9 | 88.7 | 4.7 | 104 | 3.16 | Papp B→A [1]: 5.74 ×10⁻⁶ cm/s; efflux ratio [1]: 2.39; recovery [7, 16]: 73.9%; inhibition at 1 µM (LNCaP prostate cancer): 86.7%; inhibition at 1 µM (Hela cervical cancer): 101%
2 | COC(=O)O[C@H]1C[C@H]2OC[C@@]2(OC(C)=O)[C@H]2[C@H](OC(=O)c3ccccc3)[C@]34OC(=O)O[C@H]3[C@H](OC(=O)[C@H](O)[C@@H](NC(=O)N(C)C)c3ccccc3)C(C)=C([C@@H](OC)C(=O)[C@]12C)C4(C)C [PCMI-19] | 92.7 | 83.7 | 67.3 | 2.79 | 93.3 | 6.58 ± 0.02 | 90 | 95.2 | 87.3 | 94.2 | 96.9 | 89.7 | 83.6 | 87.2 | 80.2 | 93.9 | 74.5 | 3.78 | 78.2 | 4.05 | Papp B→A [1]: 21.3 ×10⁻⁶ cm/s; efflux ratio [1]: 7.65; Papp A→B [7, 17]: 3.92 ×10⁻⁶ cm/s; recovery [7, 16]: 70.7%; inhibition at 1 µM (LNCaP prostate cancer): 87.2%; inhibition at 1 µM (Hela cervical cancer): 99.6%
3 | COC(=O)O[C@H]1C[C@H]2OC[C@@]2(OC(C)=O)[C@H]2[C@H](OC(=O)c3ccccc3)[C@]34OC(=O)O[C@H]3[C@H](OC(=O)[C@H](O)[C@H](CC(C)C)NC(=O)OC(C)(C)C)C(C)=C([C@@H](OC)C(=O)[C@]12C)C4(C)C [PCMI-20] | 93.8 | 81.6 | 68.6 | 0.92 | 95 | 2.94 ± 0.04 | 88.6 | 93.4 | 86.8 | 95.5 | 96.9 | 85.4 | 81.1 | 87.2 | 80.4 | 94.3 | 86.5 | 1.08 | 89.8 | 0.75 | Papp B-A (Caco-2 cell monolayer [8]; B-A): 7.16 10^−6 cm/s; efflux ratio (Caco-2 cell monolayer [8]; Papp B-A/Papp A-B): 7.81; Papp A→B [7, 17]: 0.92 ×10⁻⁶ cm/s; recovery [7, 16]: 83.3%; inhibition at 1 µM (LNCaP prostate cancer): 86%; inhibition at 1 µM (Hela cervical cancer): 101%
4 | CC(=O)O[C@H]1C(=O)[C@@]2(C)[C@H]([C@H](OC(=O)c3ccccc3)[C@]3(O)C[C@H](OC(=O)[C@H](O)[C@@H](NC(=O)c4ccccc4)c4ccccc4)C(C)=C1C3(C)C)[C@]1(OC(C)=O)CO[C@@H]1C[C@@H]2O [Paclitaxel, reference compound] |  |  |  |  |  |  |  |  |  |  |  |  |  |  |  |  |  |  |  |  | IC50 ([2]; MCF7, 72 hours exposure, mean±SD of three experiments, read-out: MCF-7 (IC50)): 7.05 nM; reported absolute oral bioavailability [9]: less than 6%; Papp A→B ([7]; Caco-2, Papp A-B, Mean): 0.97 ×10⁻⁶ cm/s; Papp A→B ([7]; Caco-2, Papp A-B, Sample-01): 1.02 ×10⁻⁶ cm/s; Papp A→B ([7]; Caco-2, Papp A-B, Sample-02): 0.93 ×10⁻⁶ cm/s; recovery ([7]; Caco-2, Recovery rate in mass, Mean): 101%; recovery ([7]; Caco-2, Recovery rate in mass, Sample-01): 94.6%; recovery ([7]; Caco-2, Recovery rate in mass, Sample-02): 107%; Papp A-B (Caco-2 cell monolayer [10]): 0.97 10^−6 cm/s; Papp B-A (Caco-2 cell monolayer [10]): 33.39 10^−6 cm/s; efflux ratio (Caco-2 cell monolayer [10]): 34.38
